Source: BigSolDB 2.1

O=S(=O)(c1ccccc1)c1ccc(Cl)cc1
solubility (mole fraction)
Conditions	278.15 K	283.15 K	288.15 K	293.15 K	298.15 K	303.15 K	308.15 K	313.15 K	318.15 K	323.15 K
in ethanol	0.00091	0.00105	0.00121	0.00142	0.00166	0.00189	0.00221	0.00261	0.00301	0.00358
in isopropanol	0.00198	0.00236	0.00283	0.00338	0.00395	0.00468	0.00547	0.00629	0.00722	0.00838
in methanol	0.000276	0.000332	0.000401	0.00049	0.000572	0.000668	0.000781	0.0009	0.00105	0.00125
in n-propanol	0.00351	0.00411	0.00479	0.00555	0.00645	0.00754	0.00885	0.0102	0.0116	0.0137
in water	2.88e-06	3.77e-06	4.7e-06	5.95e-06	7.38e-06	9.03e-06	1.1e-05	1.34e-05	1.61e-05	1.94e-05
